Source: ChEMBL document CHEMBL1201862, “PubChem BioAssay data set” (2004)
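Five concentrations, 48 hours, 96-well plates. GI50: concentration for 50% inhibition of growth.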 Activity calls are given as the source filed them. No stated cut-off is given here; in the data, active = GI50 up to about 1.1 µM and inactive = higher.

Tests used:
Assay in all cases: DTP human tumour cell line panel, 48 h
786-0 = tested on: 786-0
NCI-H226 = tested on: NCI-H226
A498 = tested on: A498
COLO 205 = tested on: COLO 205
RXF 393 = tested on: RXF 393
NCI/ADR-RES = tested on: NCI/ADR-RES
OVCAR-4 = tested on: OVCAR-4
MCF7 = tested on: MCF7
SF-268 = tested on: SF-268
K562 = tested on: K562
HL-60 = tested on: HL-60
IGROV-1 = tested on: IGROV-1
U-251 = tested on: U-251
OVCAR-8 = tested on: OVCAR-8
UACC-257 = tested on: UACC-257
EKVX = tested on: EKVX
TK-10 = tested on: TK-10
MOLT-4 = tested on: MOLT-4
HCC 2998 = tested on: HCC 2998
OVCAR-3 = tested on: OVCAR-3
SN12C = tested on: SN12C
HOP-92 = tested on: HOP-92
MDA-MB-231 = tested on: MDA-MB-231
NCI-H23 = tested on: NCI-H23
SK-MEL-5 = tested on: SK-MEL-5
MDA-MB-435 = tested on: MDA-MB-435
HOP-62 = tested on: HOP-62
UACC-62 = tested on: UACC-62
OVCAR-5 = tested on: OVCAR-5
SF-539 = tested on: SF-539
LOX IMVI = tested on: LOX IMVI
CCRF-CEM = tested on: CCRF-CEM
KM12 = tested on: KM12
HT-29 = tested on: HT-29
SNB-75 = tested on: SNB-75
UO-31 = tested on: UO-31
PC-3 = tested on: PC-3
NCI-H460 = tested on: NCI-H460
MDA-N = tested on: MDA-N
BT-549 = tested on: BT-549
HCT-116 = tested on: HCT-116
SW-620 = tested on: SW-620
T47D = tested on: T47D
SNB-19 = tested on: SNB-19
HCT-15 = tested on: HCT-15
SF-295 = tested on: SF-295
Hs-578T = tested on: Hs-578T
CAKI-1 = tested on: CAKI-1
SK-MEL-28 = tested on: SK-MEL-28
ACHN = tested on: ACHN
SK-OV-3 = tested on: SK-OV-3
M14 = tested on: M14
Malme-3M = tested on: Malme-3M
NCI-H522 = tested on: NCI-H522
A549 = tested on: A549
SK-MEL-2 = tested on: SK-MEL-2
DU-145 = tested on: DU-145
RPMI-8226 = tested on: RPMI-8226
SR = tested on: SR

For `O=C(C1OC1c1ccc(Cl)cc1)C12CC3CC(CC(C3)C1)C2` (centres undefined), the GI50 (786-0) was 16.3 µM (inactive), the GI50 (NCI-H226) was 18.3 µM (inactive) and the GI50 (A498) was 23.7 µM (inactive). For the same compound, the GI50 (COLO 205) was 19.5 µM (inactive), the GI50 (RXF 393) was 21.8 µM (inactive) and the GI50 (NCI/ADR-RES) was 22.9 µM (inactive). For the same compound, the GI50 (OVCAR-4) was 15.4 µM (inactive), the GI50 (MCF7) was 33.7 µM (inactive) and the GI50 (SF-268) was 20.8 µM (inactive). For the same compound, the GI50 (K562) was 25.1 µM (inactive), the GI50 (HL-60) was 18.3 µM (inactive) and the GI50 (IGROV-1) was 23.6 µM (inactive). For the same compound, the GI50 (U-251) was 15.4 µM (inactive), the GI50 (OVCAR-8) was 16.5 µM (inactive) and the GI50 (UACC-257) was 21.6 µM (inactive). The GI50 (EKVX) was 23.1 µM (inactive), the GI50 (TK-10) was 26.7 µM (inactive) and the GI50 (MOLT-4) was 20 µM (inactive). The GI50 (HCC 2998) was 19.1 µM (inactive), the GI50 (OVCAR-3) was 15.8 µM (inactive) and the GI50 (SN12C) was 14.7 µM (inactive). For the same compound, the GI50 (HOP-92) was 16.9 µM (inactive), the GI50 (MDA-MB-231) was 23.6 µM (inactive) and the GI50 (NCI-H23) was 14.4 µM (inactive). The GI50 (SK-MEL-5) was 14.5 µM (inactive), the GI50 (MDA-MB-435) was 14.3 µM (inactive) and the GI50 (HOP-62) was 24.8 µM (inactive). The GI50 (UACC-62) was 15.4 µM (inactive), the GI50 (OVCAR-5) was 24.2 µM (inactive) and the GI50 (SF-539) was 17.3 µM (inactive). The GI50 (LOX IMVI) was 4.02 µM (inactive), the GI50 (CCRF-CEM) was 19 µM (inactive) and the GI50 (KM12) was 18.8 µM (inactive). The GI50 (HT-29) was 21 µM (inactive), the GI50 (SNB-75) was 32.8 µM (inactive) and the GI50 (UO-31) was 20.4 µM (inactive). For the same compound, the GI50 (PC-3) was 29 µM (inactive), the GI50 (NCI-H460) was 14.9 µM (inactive) and the GI50 (MDA-N) was 15.2 µM (inactive). For the same compound, the GI50 (BT-549) was 19.9 µM (inactive), the GI50 (HCT-116) was 12.4 µM (inactive) and the GI50 (SW-620) was 20.3 µM (inactive). The GI50 (T47D) was 31.6 µM (inactive), the GI50 (SNB-19) was 31.5 µM (inactive) and the GI50 (HCT-15) was 20.1 µM. For the same compound, the GI50 (SF-295) was 18.2 µM (inactive), the GI50 (Hs-578T) was 28.4 µM (inactive) and the GI50 (CAKI-1) was 28.8 µM (inactive). For the same compound, the GI50 (SK-MEL-28) was 16.5 µM (inactive), the GI50 (ACHN) was 35.4 µM (inactive) and the GI50 (SK-OV-3) was 31 µM (inactive). For the same compound, the GI50 (M14) was 17.8 µM (inactive), the GI50 (Malme-3M) was 22.4 µM (inactive) and the GI50 (NCI-H522) was 20.9 µM (inactive). For the same compound, the GI50 (A549) was 21.8 µM (inactive), the GI50 (SK-MEL-2) was 25.5 µM (inactive) and the GI50 (DU-145) was 29.1 µM (inactive).
For `O=C(c1ccccc1)C1N=NCC1c1ccc([N+](=O)[O-])cc1` (centres undefined), the GI50 (786-0) was > 100 µM (inactive), the GI50 (NCI-H226) was 50.4 µM (inactive) and the GI50 (A498) was 39 µM (inactive). For the same compound, the GI50 (COLO 205) was 39.4 µM (inactive), the GI50 (NCI/ADR-RES) was 39.3 µM (inactive) and the GI50 (OVCAR-4) was 49.2 µM (inactive). For the same compound, the GI50 (MCF7) was 22.4 µM (inactive), the GI50 (SF-268) was 40.5 µM (inactive) and the GI50 (K562) was 32.5 µM (inactive). For the same compound, the GI50 (HL-60) was 23.1 µM (inactive), the GI50 (U-251) was 48.5 µM (inactive) and the GI50 (OVCAR-8) was 42.8 µM (inactive). The GI50 (UACC-257) was 27 µM (inactive), the GI50 (EKVX) was 89.1 µM (inactive) and the GI50 (TK-10) was 34 µM (inactive). For the same compound, the GI50 (MOLT-4) was 22.4 µM (inactive), the GI50 (HCC 2998) was > 100 µM (inactive) and the GI50 (OVCAR-3) was 17.1 µM (inactive). For the same compound, the GI50 (SN12C) was > 100 µM (inactive), the GI50 (HOP-92) was 23.1 µM (inactive) and the GI50 (MDA-MB-231) was > 100 µM (inactive). For the same compound, the GI50 (NCI-H23) was 36.1 µM (inactive), the GI50 (SK-MEL-5) was 26.1 µM (inactive) and the GI50 (MDA-MB-435) was 49.1 µM (inactive). For the same compound, the GI50 (RPMI-8226) was 29.9 µM (inactive), the GI50 (HOP-62) was > 100 µM (inactive) and the GI50 (UACC-62) was 49.4 µM (inactive). The GI50 (OVCAR-5) was > 100 µM (inactive), the GI50 (SF-539) was 58.3 µM (inactive) and the GI50 (LOX IMVI) was 36.6 µM (inactive). The GI50 (CCRF-CEM) was 0.935 µM (active), the GI50 (KM12) was 45.4 µM (inactive) and the GI50 (HT-29) was 36.6 µM (inactive). The GI50 (SNB-75) was 16.7 µM (inactive), the GI50 (UO-31) was 30.1 µM (inactive) and the GI50 (PC-3) was 54.8 µM (inactive). For the same compound, the GI50 (NCI-H460) was 38.1 µM (inactive), the GI50 (MDA-N) was 29.6 µM (inactive) and the GI50 (BT-549) was 24.2 µM (inactive). For the same compound, the GI50 (HCT-116) was 51.8 µM (inactive), the GI50 (SW-620) was > 100 µM (inactive) and the GI50 (T47D) was 3.91 µM (inactive). The GI50 (SNB-19) was 54.8 µM (inactive), the GI50 (HCT-15) was 45.8 µM and the GI50 (SR) was 27.9 µM (inactive). The GI50 (SF-295) was > 100 µM (inactive), the GI50 (Hs-578T) was 34.8 µM (inactive) and the GI50 (CAKI-1) was 15 µM (inactive). The GI50 (SK-MEL-28) was 61.5 µM (inactive), the GI50 (ACHN) was 47.1 µM (inactive) and the GI50 (SK-OV-3) was > 100 µM (inactive). For the same compound, the GI50 (M14) was 48.9 µM (inactive), the GI50 (Malme-3M) was 51.4 µM (inactive) and the GI50 (A549) was 37.2 µM (inactive). The GI50 (SK-MEL-2) was 46.9 µM (inactive) and the GI50 (DU-145) was 18.4 µM (inactive).
For `COc1ccc(C2=C(N)c3ccccc3C2=O)cc1`, the GI50 (786-0) was 52.1 µM (inactive), the GI50 (NCI-H226) was 45.6 µM (inactive) and the GI50 (A498) was 81.8 µM (inactive). For the same compound, the GI50 (COLO 205) was > 100 µM (inactive), the GI50 (NCI/ADR-RES) was 42.4 µM (inactive) and the GI50 (OVCAR-4) was 96.4 µM (inactive). The GI50 (MCF7) was > 100 µM (inactive), the GI50 (SF-268) was 33.7 µM (inactive) and the GI50 (HL-60) was > 100 µM (inactive). The GI50 (IGROV-1) was 89.7 µM (inactive), the GI50 (U-251) was 33.9 µM (inactive) and the GI50 (OVCAR-8) was 37.8 µM (inactive). For the same compound, the GI50 (UACC-257) was > 100 µM (inactive), the GI50 (EKVX) was > 100 µM (inactive) and the GI50 (TK-10) was 45.1 µM (inactive). The GI50 (MOLT-4) was > 100 µM (inactive), the GI50 (HCC 2998) was > 100 µM (inactive) and the GI50 (OVCAR-3) was > 100 µM (inactive). For the same compound, the GI50 (SN12C) was > 100 µM (inactive), the GI50 (HOP-92) was 27.9 µM (inactive) and the GI50 (MDA-MB-231) was 32.5 µM (inactive). The GI50 (NCI-H23) was 39.5 µM (inactive), the GI50 (SK-MEL-5) was > 100 µM (inactive) and the GI50 (MDA-MB-435) was > 100 µM (inactive). For the same compound, the GI50 (RPMI-8226) was > 100 µM (inactive), the GI50 (HOP-62) was 31.2 µM (inactive) and the GI50 (UACC-62) was > 100 µM (inactive). The GI50 (OVCAR-5) was > 100 µM (inactive), the GI50 (SF-539) was 40.9 µM (inactive) and the GI50 (LOX IMVI) was > 100 µM (inactive). For the same compound, the GI50 (CCRF-CEM) was > 100 µM (inactive), the GI50 (KM12) was > 100 µM (inactive) and the GI50 (HT-29) was > 100 µM (inactive). For the same compound, the GI50 (SNB-75) was 27.7 µM (inactive), the GI50 (PC-3) was > 100 µM (inactive) and the GI50 (NCI-H460) was > 100 µM (inactive). The GI50 (MDA-N) was > 100 µM (inactive), the GI50 (BT-549) was 48.6 µM (inactive) and the GI50 (HCT-116) was 87.5 µM (inactive). For the same compound, the GI50 (SW-620) was > 100 µM (inactive), the GI50 (T47D) was > 100 µM (inactive) and the GI50 (SNB-19) was 25.7 µM (inactive). For the same compound, the GI50 (HCT-15) was > 100 µM, the GI50 (SR) was > 100 µM (inactive) and the GI50 (SF-295) was 37.3 µM (inactive). For the same compound, the GI50 (Hs-578T) was 27.5 µM (inactive), the GI50 (CAKI-1) was > 100 µM (inactive) and the GI50 (SK-MEL-28) was > 100 µM (inactive). The GI50 (ACHN) was 63.2 µM (inactive), the GI50 (SK-OV-3) was 43 µM (inactive) and the GI50 (M14) was > 100 µM (inactive). For the same compound, the GI50 (Malme-3M) was > 100 µM (inactive), the GI50 (NCI-H522) was 69 µM (inactive) and the GI50 (A549) was > 100 µM (inactive). For the same compound, the GI50 (SK-MEL-2) was > 100 µM (inactive) and the GI50 (DU-145) was > 100 µM (inactive).
